Test results published in publication PMC10460844, “Real‐Time Monitoring of Multitarget Antimicrobial Mechanisms of Peptoids Using Label‐Free Imaging with Optical Diffraction Tomography” (Advanced Science, 2023).

How the values were obtained:
[1] = Analytical reversed-phase HPLC elution (hydrophobicity); type: physicochemical; details: Table S1; analytical RP-HPLC, SunFire C18, water/ACN + 0.1% TFA, 5 to 100% B linear over 30 min, 1 mL/min, UV 220 nm; approximate comparison of hydrophobicity
Method in brief: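 Retention time (tR) reflects hydrophobicity, with detection at 220 nm. Elution used a 5–100% acetonitrile linear gradient over 30 min after a 2 min hold at 5%, then 5 min at 100%, with both phases containing 0.1% TFA. Column was an analytical C18 (4.6 × 250 mm, 5 μm) run at 1 mL/min.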

rat erythrocytes = assay: Hemolysis assay; type: cell-based; details: for HC10 / HC50: pH 7.4
Method in brief: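 Washed Sprague-Dawley rat erythrocytes (10% suspension in PBS pH 7.4) mixed with peptoids (0–100 µM), 60 min at 37 °C; supernatant A540 expressed as % of 1% Triton X-100 lysis. HC10/HC50 are concentrations giving 10%/50% hemolysis; Hmax is hemolysis at 100 µM.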

[2] = remark linked to increased retention time of N4hb peptoids
human cells and animals = details: cited from earlier work
Protocol: The antimicrobial, hemolytic, and cytotoxic activities of counter-ion-exchanged peptoids were evaluated (Table S3).

| Compound | HPLC elution [1] [% MeCN] | Hmax (100 µM) (rat erythrocytes) [%] | HC10 (rat erythrocytes) [µM] | HC50 (rat erythrocytes) [µM] | aqueous solubility [2] | toxicity of M33-TFA above that of M33-AcOH (human cells and animals) |
| --- | --- | --- | --- | --- | --- | --- |
| C[C@@H](c1ccccc1)N(CC(N)=O)C(=O)CN(CCCCN)C(=O)CN(C(=O)CN(C(=O)CN(CCCCN)C(=O)CN(C(=O)CN(CCCCN)C(=O)CN(CCCCN)C(=O)CN(C(=O)CN(C(=O)CN(CCCCN)C(=O)CN(C(=O)CNCCc1c[nH]c2ccccc12)[C@@H](C)c1ccccc1)[C@@H](C)c1ccccc1)[C@@H](C)c1ccccc1)[C@@H](C)c1ccccc1)[C@@H](C)c1ccccc1)[C@@H](C)c1ccccc1 [peptoid 63] | 49.9 | 12.7±0.9 | 85.0 | > 100 | poor aqueous | – |
| C[C@@H](c1ccccc1)N(CC(N)=O)C(=O)CN(CCCCN)C(=O)CN(C(=O)CN(C(=O)CN(CCCCN)C(=O)CN(C(=O)CN(C(=O)CN(CCCCN)C(=O)CN(C(=O)CN(CCCCN)C(=O)CN(CCCCN)C(=O)CN(C(=O)CNCCc1c[nH]c2ccccc12)[C@@H](C)c1ccccc1)[C@@H](C)c1ccccc1)[C@@H](C)c1ccccc1)[C@@H](C)c1ccccc1)[C@@H](C)c1ccccc1)[C@@H](C)c1ccccc1 [peptoid 64] | 50.5 | 18.9±2.9 | 70.7 | > 100 | poor aqueous | – |
| KKIRVRLSA [M33-TFA] | – | – | – | – | – | 5-30% |
